This is an account of results in patent publication US20030032078A1, “Methods and compositions for the treatment of macular and retinal degenerations” (Board of Regents, The University of Texas System, priority 2001, published 2003).

The test system of data set [1] is membranes from chicken and ground squirrel retinas. Kind of data set: Retinyl ester formation and isomerization from [3H]atROL in membranes from chicken and ground squirrel retinas. The format is biochemical. The settings on record: chicken and ground squirrel retina membranes. An excerpt: There are striking differences in retinyl-ester content and retinoid turnover upon analysis of ocular tissues from cone-dominant ground squirrel and chicken. Chicken retinas contained 60% 11cRE and 40% atRE, while ground-squirrel retinas contained 80% 11cRE and 20% atRE. The ratio of cones to rods is 60:40 in chicken (Meyer et al., 1973), 96:4 in ground squirrel (West et al., 1975), 3:97 in mouse (Carter-Dawson et al., 1979), and 8:92 in bovine retina (Krebs et al., 1982). Thus, across multiple species, the level of 11cRE in retina is loosely correlated with the ratio of cone to rod photoreceptors. […] During time-course studies, [^3H]11cROL always preceded the appearance of [3H]11cRE. […] In particular, this new all-trans-retinol isomerase (atRI) is insensitive to tRBA. This insensitivity rules out the trivial explanation of RPE contamination in retinal membrane preparations. […] Unlike LRAT, this new ester synthase is not inhibited by tRBA or cRBA, and has high specificity for the 11cROL substrate.

In data set [2] the test system is microsomal membranes prepared from bovine RPE. Kind of data set: Retinyl ester formation and isomerization from [3H]retinols in microsomal membranes from bovine RPE. In kind it is biochemical. The protocol:
The retinyl-ester content of fresh bovine ocular tissues were analyzed. Bovine RPE contained approximately 95% all-trans-retinyl esters (atRE) and 5% 1cRE. No retinyl esters were detectable in bovine retinas. When [^3H]atROL was added to microsomal membranes prepared from bovine RPE, the formation of [3H]atRE, and subsequent formation of [^3H]11cROL were observed. […] The isomeric inhibitor, 11-cis-retinyl α-bromoacetate (cRBA) was also synthesized. This agent suppressed the formation of [^3H]11cRE from [^3H]11cROL added to bovine-RPE membranes, but had no effect on the synthesis of [^3H]atRE or [^3H]11cROL from added [^3H]atROL. No ester-synthase activity was detected in bovine retinas. The results of these studies on rod-dominant bovine eyes are in full accord with the published results of other investigators (Rando et al., 1992; Saari et al., 1994; Crouch et al., 1996; Trehan et al., 1990).

Data set [3] relates to patients with neovascularisation extending under the center of the retina. The note with it: cited from earlier work.
Another data set concerns the target T1, LRAT (Bos taurus, UniProt Q9BGL2).
T1 construct: microsomal membranes prepared from bovine RPE; from tissue; host or cells: bovine retinal pigment epithelium, microsomal membranes
T1 sequence (Q9BGL2 1-230): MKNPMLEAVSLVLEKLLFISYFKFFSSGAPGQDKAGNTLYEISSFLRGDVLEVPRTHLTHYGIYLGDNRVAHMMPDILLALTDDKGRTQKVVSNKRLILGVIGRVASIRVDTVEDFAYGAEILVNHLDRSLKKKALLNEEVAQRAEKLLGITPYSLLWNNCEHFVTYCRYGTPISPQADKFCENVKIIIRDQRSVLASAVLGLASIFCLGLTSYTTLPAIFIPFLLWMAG
The note with it: Trehan et al., 1990; cited from earlier work.

For data set [4] the following is noted: humans; cited from earlier work.
Another data set relates to wild-type mice. Kind of data set: Retinoid profile after intraperitoneal injection of isotretinoin into light-adapted wild-type mice. In kind it is in vivo, mouse. An excerpt: (§1) Long delays in 11cRAL regeneration are also observed after a photobleach in mice treated with isotretinoin. This alteration in the retinoid profile is similar to the pattern in 11cRDH knockout-mice (Driessen et al., 2000).

A further data set deals with humans. The settings on record: clinical use for acne; due to impaired regeneration of rhodopsin; cited from earlier work.
The test system of the next data set is abcr−/− mice. Kind of data set: A2E and A2PE-H2 levels in ocular tissues of abcr−/− mice treated with isotretinoin (HPLC). In kind it is in vivo, mouse. As to the method: FIG. 7—A2E and A2PE-H2 in abcr−/− ocular tissues following treatment with isotretinoin. A2E and A2PE-H2 were extracted from the indicated tissues and analyzed by HPLC as previously described (Mata et al., 2000; Weng et al., 1999). (FIG. 7A) A2E levels in abcr−/− RPE from four-month-old mice treated for one month with isotretinoin at 40 mg/kg/day (4-mo 13cRA), four-month-old mice treated with DMSO carrier alone (4-mo DMSO), and three-month-old untreated mice (3-mo untreated). (FIG. 7B) A2PE-H2 levels in abcr−/− RPE from the same animals in panel (A) plus four-month-old untreated mice (4-mo untreated). (FIG. 7C) A2PE-H2 levels in abcr−/− retinas from the same animals in panel (B). All data are shown as milliabsorption units (mAU) at the indicated wavelengths±SEM (n=3).
Tissue Preparation and Extraction. Mouse and human tissues were homogenized in 1 ml of PBS. For analysis of mouse outer segments, dissected retinas were shaken on a vortex mixer in 8% Optiprep/Ringer's buffer and fractionated by centrifugation through an Optiprep step-gradient according to the procedure of Tsang et al. (1998). Collected outer segments were suspended in 1 ml PBS and homogenized. 1 ml of chloroform/methanol (2:1, v/v) was added to each homogenate. Phospholipids and chloroform-soluble fluorophores were extracted twice from the samples following addition of 4 ml of chloroform and 3 ml water. The pooled organic phases were dried under a stream of argon. Sample residues were resuspended in 200- 400 μl of hexane, and analyzed by HPLC.
Sample extracts were analyzed by normal phase HPLC using an HP 1100 liquid chromatograph with a photodiode array detector. Chromatography conditions were as previously described (Birnbach et al., 1994) using a silica column (Microsorb 5 μm Si, 250×4.6 mm) and the mobile phase: hexane/2-propanol/ethanol/25 mM potassium phosphate/acetic acid (485:376:100:40:0.275, v/v; pH 7.0). For A2PE-H2 purification, the water content was reduced to 2.5% for better resolution of fatty acyl esters. Spectra for the eluted peaks were corrected by subtracting the nearest integrated baseline to remove solvent absorption. A2-E, phosphatidylethanolamine, and all-trans-RAL were quantitated by comparing the sample peak-area to a calibration curve constructed with authentic standards (18:0-22:6 for the phosphatidylethanolamine standard) (Birnbach et al., 1994). […] In Table 6, APE and protonated-APE were quantitated using published molar extinction coefficients (Anderson et al., 1996).
Three-month-old abcr−/− mice were treated with isotretinoin (13 cis retinoic acid) for one month.

Data set [5] concerns mice. The note with it: Yuschak et al., 1993; cited from earlier work.
In data set [6] the test system is mice. Nature of the data set: Photoreceptor degeneration by histologic or electroretinographic (ERG) analysis after prolonged isotretinoin treatment. In kind it is in vivo, mouse. The note with it: prolonged treatment at doses up to 50 mg/kg/day (25× the maximum human dose).
Text: as §1

A short description of data set [7]: Isotretinoin in retina and RPE by HPLC analysis after intraperitoneal injection.
Another data set deals with 11cRDH. The settings on record: Law et al., 1989, Gamble et al., 1999, cited from earlier work.
The test system of data set [8] is patients with retinitis pigmentosa (RP) and related retinal degenerations. The settings on record: supplemental lutein; Dagnelie et al., 2000; cited from earlier work.
The subject of another data set is rodent model. The note with it: cited from earlier work.
The mark [9] stands for this setting: light-adapted wild-type mice, intraperitoneal injection.

Entries after “also recorded” stand apart in the source; their conditions may differ. Read-outs that look alike come from different tables or passages of the source.

As to `CC1=C(/C=C/C(C)=C/C=C\C(C)=C/COC(=O)CBr)C(C)(C)CCC1` [cRBA, 11-cis-retinyl α-bromoacetate], the “synthesis of [3H]11cRE” value in data set [1] is on record as “no effect”. Further, in [2], the “formation of [3H]11cRE from added [3H]11cROL” value is reported as “suppressed”; the “formation of atRE and 11cROL from added [3H]atROL” value was “no effect”.
Consider verteporfin, for which the “risk of moderate and severe vision loss” value in data set [3] (at one year, reduced from 61%) is 33%; in [3] (at two years, reduced from 69%), 41%.
As for `CC1=C(/C=C/C(C)=C/C=C/C(C)=C/COC(=O)CBr)C(C)(C)CCC1` [tRBA, all-trans-retinyl α-bromoacetate], in data set [1], the “formation of [3H]11cROL or [3H]11cRE from added [3H]atROL” value is “no effect” and the “formation of [3H]atRE from added [3H]atROL” value is given as “completely suppressed”. Besides, in data set [2], the “formation of [3H]11cRE from added [3H]11cROL” value is given as “completely inhibited”; the “formation of atRE and 11cROL from added [3H]atROL” value is on record as “completely suppressed”. On LRAT, the “inhibition of LRAT” value is given as “potent inhibitor”.
For `CC1=C(/C=C/C(C)=C/C=C/C(C)=C\C(=O)O)C(C)(C)CCC1` [isotretinoin, 13-cis-retinoic acid], the serum half-life in data set [4] is 10 to 20 h. Moreover, in the data set on wild-type mice (setting [9]), the “11cRAL and atRAL in outer segments” value is reported as “Profound depletion”; the “11cRE in RPE cells” value is “accumulation”. Further, the “11cRAL regeneration after a photobleach” value with wild-type mice (mice treated with isotretinoin) is recorded as “Long delays”. In addition, the “side effect night blindness” value in the data set on humans is “common side effect”. For the same molecule, the “suppression of A2E accumulation in RPE” value in the data set on abcr−/− mice (abcr−/− mice, isotretinoin 40 mg/kg/day for one month, FIG. 7A) is given as “approximately two-fold”. The “suppression of A2PE-H2 accumulation in RPE” value with abcr−/− mice (abcr−/− mice, isotretinoin 40 mg/kg/day for one month, FIG. 7B) was “approximately three-fold”. Besides, in the data set with abcr−/− mice (four-month-old abcr−/− mice after one month of isotretinoin, FIG. 7C), the A2PE-H2 in retina result is recorded as “near absence; also recorded: virtually undetectable”. In addition, the “A2E in RPE, level relative to sham-treated (DMSO) controls” value in the data set on abcr−/− mice (four-month-old abcr−/− mice treated for one month with isotretinoin at 40 mg/kg/day) is on record as “approximately 50%”. Moreover, the tolerated dose entry with mice [5] is “up to 400 mg/kg/day”. Moreover, the “photoreceptor degeneration by histologic or electroretinographic (ERG) analysis” value in the data set on mice [6] is on record as “No photoreceptor degeneration”. Also, the “detection in retina and RPE” value in data set [7] (five minutes following an intraperitoneal injection) is “detected”. Besides, the tissue concentrations entry in data set [7] (one hour following a single injection at 4 mg/kg) is recorded as “micromolar range”. The “inhibition of 11cRDH in RPE” value with 11cRDH was “potent inhibitor”. Besides, in the data set on 11cRDH (listed as Isotretinoin), the “inhibition of 11cRDH in RPE” value is “inhibit 11cRDH”.
As to `CC1=C[C@H](O)CC(C)(C)[C@H]1/C=C/C(C)=C/C=C/C(C)=C/C=C/C=C(C)/C=C/C=C(C)/C=C/C1=C(C)C[C@@H](O)CC1(C)C` [lutein], in data set [8], the effect on vision entry was “short term improvements in vision”.

B1: Glial Derived Neurotrophic Factor: a survival factor which has slowed degeneration in a rodent model (protein, UniProt P39905 78-211, looked up)
Glial cell line-derived …: SPDKQMAVLPRRERNRQAAAANPENSRGKGRRGQRGKNRGCVLTAIHLNVTDLGLGYETKEELIFRYCSGSCDAAETTYDKILKNLSRNRRLVSDKVGQACCRPIAFDDDLSFLDDNLVYHILRKHSAKRCGCI
For B1, the “effect on retinal degeneration” value with rodent model is “slowed degeneration”.
